Assays:
anxiety and depression = test: Treatment of anxiety and depression patients, delivery by SphenoCath, subjective and family reports; type: in vivo, human; conditions: Patient 2; single IV treatment, about 30 mg
Protocol: Patient continued treatment over the course of a six-month period on an as-needed basis, which ranged from twice a week to every other month.
Inventor and patient decided to begin with the fairly typical six treatment induction phase used by IV ketamine clinics, but deliver it using the SphenoCath to the sphenopalatine foramen.
The fourth treatment was 2 ml of the combination with concentrations of 80 mg/ml NAD+, 12.5 mg/ml ketamine, and 5 mg/ml. […] Several of the treatments included a rotation of the head. For example, the combination was administered to the Patient and the head was rotated 30 degrees to the right for 5 minutes, then 30 degrees to the left for 5 minutes and then neutral for 5 minutes. Other times the head was rotated to the right at 30 degrees for 5 minutes, then 30 degrees to the left for 5 minutes and then neutral for 5 minutes.
Patient 5 completed the GAD 7 and PHQ 9 screening tools before treatment and two weeks after completion of the series. […] Patient returned for “booster” treatments four months later. […] The treatment regime also included 30-degree rotation to the right for 5 minutes, then 30-degree rotation to the left for 5 minutes, finally neutral for 5 minutes.
The first treatment was 1.8 ml of the combination with concentrations of 55 mg/ml NAD+, 14 mg/ml ketamine, 3 mg/ml. […]

[1] = tested on: dissociative experience and discomfort; test: Tolerability and dissociative effects in treated patients
From the text: The individual components of the composition can be administered individually.

[2] = tested on: opiate withdrawal symptoms; test: Treatment of opiate/heroin withdrawal patients, delivery by SphenoCath to the sphenopalatine foramen; type: in vivo, human
From the text: A device called the SphenoCath has been used to administer medication to the sphenopalatine foramen. The SphenoCath is a curved flexible catheter with a semi-rigid retractable sheath overlaying the catheter attached to a syringe. The SphenoCath is inserted through the nostril, until the tip of the SphenoCath reaches the anterior roof of the nasal cavity. The sheath of the SphenoCath is retracted allowing the curved inner catheter to drop over the anterior aspect of the middle turbinate. With the head correctly positioned medication is reliably dispensed to the area of the membrane covering the sphenopalatine foramen, and then through absorption into the pterygopalatine fossa and the nerves contained therein.
At the eleventh treatment dexamethasone was added to the combination. […] The treatment including dexamethasone was repeated 2 more times.

migraine and facial pain = conditions: through the sphenopalatine foramen into the pterygopalatine fossa; inventor's patients

Structure (SMILES): CNC1(c2ccccc2Cl)CCCCC1=O (centres unmarked) [ketamine]
- effect on mood (anxiety and depression): about the same as the intranasal treatments
- patient experience with ketamine alone ([1]; IV and intranasal, compared with mixture of NAD+, lidocaine and ketamine): more intense and dissociative experience
- patient experience of IV ketamine ([1]; Patient 2, IV at a ketamine clinic, stopped after about 30 mg): very dissociative and unpleasant experience
- time until patient felt fine after discontinuation ([1]; Patient 2, single IV treatment, about 30 mg): 30 to 45 min
- patient state after ketamine alone ([1]; Patient 4, 15 minutes after intranasal delivery to sphenopalatine foramen, slightly lower dose than in the combined treatment): very agitated and uncomfortable

Structure (SMILES): NC(=O)c1ccc[n+]([C@@H]2O[C@H](COP(=O)([O-])OP(=O)(O)OC[C@H]3O[C@@H](n4cnc5c(N)ncnc54)[C@H](O)[C@@H]3O)[C@@H](O)[C@H]2O)c1 [NAD+]
- patient experience on receiving the component individually ([1]; NAD+ administered individually): less pleasant and can lead to discomfort
- effect on dissociative effects of the NMDA receptor antagonist ([1]; NAD+ in composition with lidocaine and ketamine): significantly diminishes the dissociative effects
- effect of adding NAD+ on chemical dependency (withdrawal symptoms and cravings) ([2]; added to lidocaine, general observation): significantly enhanced the effect on chemical dependency

Structure (SMILES): CCN(CC)CC(=O)Nc1c(C)cccc1C [lidocaine]
- opiate withdrawal symptoms ([2]; person, SphenoCath, treated twice 48 hours apart): noticeably improved
- need for buprenorphine during withdrawal ([2]; person, buprenorphine was necessary for previous detox episodes): able to go through withdrawal without the use bupenophrine
- treatment success in chronic/acute migraine, cluster headache, trigeminal and postherpetic neuralgia, post-concussion headache (migraine and facial pain): successful in most cases

Source: US20250177430A1, “Compositions Comprising NAD+ and Associated Methods of Treatment” (priority 2022, published 2025)
